The source made the active and inactive calls. The rule behind the calls is not given here.
Columns and labels:
Spermatozoa [1] = assay: Spermicidal activity against boar sperm at 50 ug/mL assessed as time required for sperm death; type: functional, cell-based; conditions: Sus scrofa
Spermatozoa [2] = assay: Spermicidal activity against horse sperm at 800 ug/mL assessed as time required for sperm death; type: functional, Equus caballus
Spermatozoa [3] = assay: Spermicidal activity against rat sperm at 200 ug/mL assessed as time required for sperm death; type: functional
Spermatozoa [4] = assay: Spermicidal activity against bovine spermatozoa at 800 ug/mL assessed as time required for sperm death; type: functional, Bos taurus
Spermatozoa [5] = assay: Spermicidal activity against boar sperm at 200 ug/mL assessed as time required for sperm death; type: functional, Sus scrofa

In the case of `C/C=C(\NC(=O)[C@H](CC(N)=O)NC(=O)/C(=C\C)NC(=O)[C@H](C)NC(=O)[C@H](C)N)C(=O)N[C@@H](Cc1ccccc1)C(=O)N[C@H](C)C(=O)N[C@@H](CC(C)C)C(=O)N[C@@H]1CSC[C@H](C(=O)N[C@H]2C(=O)N[C@@H](CC(C)C)C(=O)N[C@H]3C(=O)N[C@@H](Cc4cnc[nH]4)C(=O)N[C@@H](CCC(=O)O)C(=O)N[C@@H](CCS[C@H]2C)C(=O)N[C@@H](CCSC)C(=O)N[C@@H](C)C(=O)N[C@@H](Cc2c[nH]c4ccccc24)C(=O)N[C@H](C(=O)N[C@@H](CCCCN)C(=O)O)CSC3C)NC(=O)[C@H](Cc2c[nH]c3ccccc23)NC(=O)[C@H](C)NC(=O)CNC(=O)[C@H](CC(N)=O)NC(=O)[C@H](CC(N)=O)NC(=O)CNC(=O)[C@H](Cc2c[nH]c3ccccc23)NC(=O)[C@H](Cc2ccc(O)cc2)NC(=O)[C@H](CC(=O)O)NC1=O` (stereo not given in full), the Activity (Spermatozoa [1]) is reported as “Active”.

`C/C=C(\NC(=O)C(=O)CC)C(=O)N1CCC[C@H]1C(=O)N[C@@H](C)C(=O)N/C(=C\C)C(=O)N1CCC[C@H]1C(=O)N[C@@H](C)C(=O)N[C@H](C(=O)N[C@H](C)C(=O)N[C@H](C(=O)N[C@@H](CC(C)C)C(=O)N[C@H](C)C(=O)N[C@@H](C)C(=O)N[C@@H](Cc1ccc(O)cc1)C(=O)N[C@H](C(=O)N[C@@H]1CSC[C@@H](C(=O)N2CCC[C@H]2C(=O)N[C@H]2C(=O)N[C@@H]([C@@H](C)O)C(=O)N[C@@H](CCCCN)C(=O)N[C@H](C(=O)N[C@H]3C(=O)N[C@@H](CCCNC(=N)N)C(=O)N[C@@H](C)C(=O)N[C@H](C(=O)O)CSC3C)CSC2C)NC(=O)[C@H]([C@@H](C)O)NC(=O)[C@H](CC(N)=O)NC(=O)[C@H]([C@@H](C)O)NC1=O)[C@@H](C)CC)[C@@H](C)CC)[C@@H](C)CC` (stereo not given in full) was tested, and the Time (Spermatozoa [2]) was 4.8 min, the Time (Spermatozoa [3]) was 2 min and the Time (Spermatozoa [4]) was 2.5 min. For the same compound, the Time (Spermatozoa [5]) was 1.8 min.

Work on `C/C=C(\NC(=O)[C@H](CC(N)=O)NC(=O)/C(=C/C)NC(=O)[C@H]1CSC[C@H](N)C(=O)N1)C(=O)N[C@@H](Cc1ccccc1)C(=O)N[C@H](C)C(=O)N[C@@H](CC(C)C)C(=O)N[C@@H]1CSC[C@@H](C(=O)N[C@H]2C(=O)N[C@@H](CC(C)C)C(=O)N[C@H]3C(=O)N[C@@H](Cc4cnc[nH]4)C(=O)N[C@@H](CCC(=O)O)C(=O)N[C@@H](CS[C@H]2C)C(=O)N[C@@H](CCSC)C(=O)N[C@@H](C)C(=O)N[C@@H](Cc2c[nH]c4ccccc24)C(=O)N[C@H](C(=O)N[C@@H](CCCCN)C(=O)O)CS[C@H]3C)NC(=O)[C@H](Cc2c[nH]c3ccccc23)NC(=O)[C@H](C)NC(=O)CNC(=O)[C@H](CC(N)=O)NC(=O)[C@H](CC(N)=O)NC(=O)CNC(=O)[C@H](Cc2c[nH]c3ccccc23)NC(=O)[C@H](Cc2ccc(O)cc2)NC(=O)[C@H](CC(=O)O)NC1=O` yielded a Time (Spermatozoa [2]) of 12.7 min, a Time (Spermatozoa [3]) of 2.3 min and a Time (Spermatozoa [4]) of 16.6 min. For the same compound, the Time (Spermatozoa [5]) was 2.5 min.

`C/C=C(\NC(=O)C(=O)CC)C(=O)N1CCC[C@H]1C(=O)N[C@@H](C)C(=O)N/C(=C\C)C(=O)N1CCC[C@H]1C(=O)N[C@@H](C)C(=O)N[C@H](C(=O)N[C@H](C)C(=O)N[C@H](C(=O)N[C@@H](CC(C)C)C(=O)N[C@H](C)C(=O)N[C@@H](C)C(=O)N[C@@H](Cc1ccc(O)cc1)C(=O)N[C@H](C(=O)N[C@H]1CSC[C@H](C(=O)N2CCC[C@H]2C(=O)N[C@H]2C(=O)N[C@@H]([C@@H](C)O)C(=O)N[C@@H](CCCCN)C(=O)N[C@H](C(=O)N[C@H]3C(=O)N[C@@H](CCCNC(=N)N)C(=O)N[C@@H](C)C(=O)N[C@@H](C(=O)O)CSC3C)CSC2C)NC(=O)[C@H]([C@@H](C)O)NC(=O)[C@H](CC(N)=O)NC(=O)[C@H]([C@@H](C)O)NC1=O)[C@@H](C)CC)[C@@H](C)CC)[C@@H](C)CC` (stereo not given in full) was tested, and the Activity (Spermatozoa [1]) was “Active”.

— ChEMBL document CHEMBL1144860, “Spermicidal bacteriocins: lacticin 3147 and subtilosin A” (2008)
